Test results reported in ChEMBL document CHEMBL3817755, “Design, synthesis and biological evaluation of indazolepyrimidine based derivatives as anticancer agents with anti-angiogenic and antiproliferative activities” (Medchemcomm, 2016).

Experiments:
Assay type in all cases: functional
K562 = assay: Growth inhibition of human K562 cells at 10 uM after 48 hrs by SRB assay; settings: K562, 48 h, read-out: GI
A549 = assay: Growth inhibition of human A549/ATCC cells at 10 uM after 48 hrs by SRB assay; settings: A549, 48 h, read-out: GI
NCI-H322M = assay: Growth inhibition of human NCI-H322M cells at 10 uM after 48 hrs by SRB assay; settings: read-out: GI
KM12 = assay: Growth inhibition of human KM12 cells at 10 uM after 48 hrs by SRB assay; settings: KM12, 48 h, read-out: GI
[1] = Growth inhibition of human SF295 cells at 10 uM after 48 hrs by SRB assay; settings: SF-295, 48 h, read-out: GI
[2] = Growth inhibition of human SF539 cells at 10 uM after 48 hrs by SRB assay; settings: SF-539, 48 h, read-out: GI
U-251 = assay: Growth inhibition of human U251 cells at 10 uM after 48 hrs by SRB assay; settings: U-251, 48 h, read-out: GI
SK-MEL-28 = assay: Growth inhibition of human SK-MEL-28 cells at 10 uM after 48 hrs by SRB assay; settings: SK-MEL-28, 48 h, read-out: GI
[3] = Growth inhibition of human UACC257 cells at 10 uM after 48 hrs by SRB assay; settings: UACC-257, 48 h, read-out: GI
[4] = Growth inhibition of human OVCAR5 cells at 10 uM after 48 hrs by SRB assay; settings: OVCAR-5, 48 h, read-out: GI
[5] = Growth inhibition of human OVCAR8 cells at 10 uM after 48 hrs by SRB assay; settings: OVCAR-8, 48 h, read-out: GI
[6] = Growth inhibition of human Caki1 cells at 10 uM after 48 hrs by SRB assay; settings: CAKI-1, 48 h, read-out: GI
[7] = Growth inhibition of human RXF393 cells at 10 uM after 48 hrs by SRB assay; settings: RXF 393, 48 h, read-out: GI
[8] = Growth inhibition of human TK10 cells at 10 uM after 48 hrs by SRB assay; settings: TK-10, 48 h, read-out: GI
MCF7 = assay: Growth inhibition of human MCF7 cells at 10 uM after 48 hrs by SRB assay; settings: MCF7, 48 h, read-out: GI
MDA-MB-231 = assay: Growth inhibition of human MDA-MB-231 cells at 10 uM after 48 hrs by SRB assay; settings: MDA-MB-231, 48 h, read-out: GI
[9] = Growth inhibition of human BT549 cells at 10 uM after 48 hrs by SRB assay; settings: BT-549, 48 h, read-out: GI

SMILES | inhibition of growth at 10 µM (K562) [%] | inhibition of growth at 10 µM (A549) [%] | inhibition of growth at 10 µM (NCI-H322M) [%] | inhibition of growth at 10 µM (KM12) [%] | inhibition of growth at 10 µM [1] [%] | inhibition of growth at 10 µM [2] [%] | inhibition of growth at 10 µM (U-251) [%] | inhibition of growth at 10 µM (SK-MEL-28) [%] | inhibition of growth at 10 µM [3] [%] | inhibition of growth at 10 µM [4] [%] | inhibition of growth at 10 µM [5] [%] | inhibition of growth at 10 µM [6] [%] | inhibition of growth at 10 µM [7] [%] | inhibition of growth at 10 µM [8] [%] | inhibition of growth at 10 µM (MCF7) [%] | inhibition of growth at 10 µM (MDA-MB-231) [%] | inhibition of growth at 10 µM [9] [%]
NS(=O)(=O)c1ccc(Nc2nccc(Nc3ccc4[nH]ncc4c3)n2)cc1 | 25 | 11 | -5 | 22 | 2 | -3 | 19 | -18 | 14 | -10 | 18 | -4 | 11 | -16 | 40 | 14 | -6
Clc1ccc(Nc2nccc(Nc3ccc4[nH]ncc4c3)n2)cc1 | 108 | 50 | 25 | 91 | 29 | 24 | 41 | 20 | 12 | 35 | 78 | 48 | 65 | 38 | 75 | 31 | 47
